Laboratory results as given in US10743535B2, “Insecticide for flight-capable pests” (H&K SOLUTIONS LLC, priority 2017, dated 2020).

Tests used:
lanternfly = settings: in vivo; cited from earlier work
bees = settings: perhaps contributing to the collapse of bee colonies; cited from earlier work
[1] = test system: spotted lanternflies (lycorma delicatula); test: formulations sprayed on lantern flies to test lethality; format: in vivo; settings: applied by spraying the top of the insect; lethal = the insect dies within 10 minutes
Experimental: The concentration of menthol in the insecticide should be sufficient such that it is lethal to the insect. As used herein, the term “lethal” means that, once applied by spraying the top of the insect, the insect dies within 10 minutes. Those of skill in the art can determine a lethal dose of menthol without undue experimentation. Although higher doses tend to result in a shorter kill time, given the expense of menthol, it is generally preferred to minimize its concentration to achieve a sufficient kill time, i.e., less than 10 minutes and preferably less than 2 minutes, and more preferably less than 1 minute.
The following nonlimiting examples illustrate the effectiveness of the insecticide of the present invention. […] In all cases, the formulations were applied to lantern flies to test the effectiveness of the particular formulation, and, in all cases, the formulations were lethal as defined in this application.
Again, in all cases, the formulations were applied to lantern flies to test the effectiveness of the particular formulation, and, in all cases, the formulation were lethal as defined in this application.

SMILES: CN/C(=N/CC1CCOC1)N[N+](=O)[O-] (centres unmarked) [Dinotefuran]
- shown to be effective in exterminating the lanternfly (lanternfly): effective
- time to kill the lanternfly (lanternfly): hours
- effect on bees (bees): detrimental

SMILES: CC1(C)C(C=C(Cl)Cl)C1C(=O)OCc1cccc(Oc2ccccc2)c1 (centres unmarked) [Permethrin]
- shown to be effective in exterminating the lanternfly (lanternfly): effective

SMILES: CC1CCC(C(C)C)C(O)C1 (centres unmarked) [menthol]
- lethal to lanternfly [1]: lethal
